Results on 21 molecules are retold here after US20120010075A1 (priority 2009, published 2012).

Experiment [1] concerns Phytophthora infestans. Format: in vivo, Phytophthora infestans on tomato. To be noted: applied 24 h before inoculation, assessed 7 days after inoculation.
Experiment [2] concerns Leptosphaeria nodorum (LEPTNO). Briefly: In vitro fungitoxicity of hydrazones with and without copper towards Leptosphaeria nodorum (Example 26). Format: cell-based. To be noted: 72 h at 25° C.; for inhibition of growth at 0.05 µg/mL: Parastagonospora nodorum, 72 h, read-out: LEPTNO % Inhn. Minus Copper Observed.
The mark [3] stands for this setting: hydrazone 50 ppm + 50 μM CuCl2.2H2O, tomato.
Setting [4] is: compound 0.05 μg/mL, copper-minus medium.
The mark [5] stands for this setting: compound 0.05 μg/mL, copper-plus medium (CuCl2.2H2O).
Setting [6] is: hydrazone 50 ppm with 50 μM CuCl2.2H2O, tomato late blight.
Where [7] appears, read: copper-minus medium, test compound Concn. 0.05 μg/mL.
Setting [8] is: copper-plus medium (CuCl2 10 μM), test compound Concn. 0.05 μg/mL.

Structures are written as SMILES. Where two headings read alike, the source gives them in different places.

`C/C(=N\NC(=O)c1cccc(I)c1)c1ccccc1O` [Example 13]: in experiment [1] (setting [3]), the “TLB % Control” value is given as 33.3%. In experiment [2] (setting [4]), the “LEPTNO % Inhn. Minus Copper Observed” value amounted to 0.0%. The “LEPTNO % Inhn. Plus Copper Observed” value in experiment [2] (setting [5]) turned out to be 96.2%.
Consider `O=C(N/N=C/c1cc(Br)ccc1O)c1ccc2c(c1)OCO2` [Example 7], for which the “TLB % Control” value in experiment [1] (setting [3]) was 54.6%. Moreover, the inhibition of growth at 0.05 µg/mL in experiment [2] (setting [4]) was determined as 2.6%. The “LEPTNO % Inhn. Plus Copper Observed” value in experiment [2] (setting [5]) came out at 97.2%.
With `C/C(=N\NC(=O)c1ccc2ccccc2c1O)c1cc(Cl)cc(Cl)c1O` [Example 480], the “TLB % Control” value in experiment [1] (setting [6]) was 4.7%. Also, the inhibition of growth at 0.05 µg/mL in experiment [2] (setting [7]) is 9.5%. Besides, the “LEPTNO % Inhn. Plus Copper Observed” value in experiment [2] (setting [8]) came to 95.3%.
On to `Cc1cccc(C(=O)N/N=C/c2cc(Cl)cc(Cl)c2O)c1` [Example 95], for which the “TLB % Control” value in experiment [1] (setting [3]) amounted to 81.2%. Also, the inhibition of growth at 0.05 µg/mL in experiment [2] (setting [4]) was 14.1%. In addition, in experiment [2] (setting [5]), the “LEPTNO % Inhn. Plus Copper Observed” value is 94.0%.
In the case of `CC(C)/C(=N\NC(=O)c1ccccc1)c1cc(Cl)cc(Cl)c1O` [Example 588], in experiment [1] (setting [6]), the “TLB % Control” value was 5.6%. In experiment [2] (setting [7]), the inhibition of growth at 0.05 µg/mL came to 7.6%. Besides, in experiment [2] (setting [8]), the “LEPTNO % Inhn. Plus Copper Observed” value is given as 96.3%.
In the case of `O=C(N/N=C/c1cc(Cl)cc(Cl)c1O)c1ccc(Cl)cc1Cl` [Example 78], the “TLB % Control” value in experiment [1] (setting [3]) amounted to 70.9%. In addition, in experiment [2] (setting [4]), the inhibition of growth at 0.05 µg/mL worked out at 7.9%. The “LEPTNO % Inhn. Plus Copper Observed” value in experiment [2] (setting [5]) is recorded as 96.3%.
In the same order, the values of `C/C(=N\NC(=O)c1ccc(C)cc1C)c1ccccc1O` [Example 29] are 50.8%, 0% and 98.0%.
In the same order, the values of `O=C(N/N=C/c1cccc([N+](=O)[O-])c1O)c1ccccc1` [Example 145] are 55.9%, 2.4% and 97.2%.
For the molecule `C/C(=N\NC(=O)c1ccccc1Cl)c1ccccc1O` [Example 212], the “TLB % Control” value in experiment [1] (setting [3]) turned out to be 14.0%. Further, the inhibition of growth at 0.05 µg/mL in experiment [2] (setting [4]) amounted to 0%. Besides, in experiment [2] (setting [5]), the “LEPTNO % Inhn. Plus Copper Observed” value was found to be 95.2%.
Consider `COc1ccc(C(=O)N/N=C(\C)c2ccccc2O)cc1` [Example 214], for which, in experiment [1] (setting [3]), the “TLB % Control” value came out at 60.0%. Moreover, in experiment [2] (setting [4]), the inhibition of growth at 0.05 µg/mL amounted to 7%. Besides, the “LEPTNO % Inhn. Plus Copper Observed” value in experiment [2] (setting [5]) amounted to 98.0%.
In the same order, the values of `O=C(N/N=C/c1cc(Cl)cc([N+](=O)[O-])c1O)c1ccccc1` [Example 150] are 87.5%, 10% and 97.5%.
In the same order, the values of `O=C(N/N=C/c1cc(Cl)ccc1O)c1ccccc1Br` [Example 190] are 70.9%, 5.6% and 95.7%.
In the same order, the values of `O=C(N/N=C/c1cc([N+](=O)[O-])ccc1O)c1ccc(Cl)cc1` [Example 197] are 43.7%, 0% and 97.1%.
Consider `COc1cc(Br)cc(/C=N/NC(=O)c2ccccc2)c1O` [Example 156], for which the “TLB % Control” value in experiment [1] (setting [3]) was 51.5%. Further, the inhibition of growth at 0.05 µg/mL in experiment [2] (setting [4]) was 7.4%. Also, the “LEPTNO % Inhn. Plus Copper Observed” value in experiment [2] (setting [5]) was 94.8%.
On the same counts, the results for `C/C(=N\NC(=O)c1cccc([N+](=O)[O-])c1)c1ccccc1O` [Example 37] are 33.0%, 3.3% and 97.0%.
As to `CCOc1ccc(C(=O)N/N=C(\C)c2ccccc2O)cc1` [Example 18], the “TLB % Control” value in experiment [1] (setting [3]) turned out to be 38.6%. For the same molecule, the inhibition of growth at 0.05 µg/mL in experiment [2] (setting [4]) stood at 0%. Moreover, the “LEPTNO % Inhn. Plus Copper Observed” value in experiment [2] (setting [5]) was 96.9%.
In the same order, the values of `COc1ccc(O)c(/C=N/NC(=O)c2ccccc2)c1` [Example 154] are 36.6%, 3.4% and 70.7%.
In the same order, the values of `C/C(=N\NC(=O)c1ccccc1O)c1ccccc1O` [Example 213] are 56.1%, 3.7% and 98.8%.
Regarding `O=C(N/N=C/c1cc(Br)cc(Br)c1O)c1ccc(OC(F)(F)F)cc1` [Example 109], the “TLB % Control” value in experiment [1] (setting [3]) is listed as 89.1%. Also, the inhibition of growth at 0.05 µg/mL in experiment [2] (setting [4]) was 27.8%. The “LEPTNO % Inhn. Plus Copper Observed” value in experiment [2] (setting [5]) was determined as 98.3%.
In the same order, the values of `O=C(N/N=C/c1cc(Cl)ccc1O)c1cccc(Br)c1` [Example 181] are 90.5%, 16% and 97.6%.
On the same counts, the results for `COc1cccc(C(=O)N/N=C/c2cc(Cl)cc(Cl)c2O)c1` [Example 82] are 60.6%, 8.4% and 97.4%.
